Like-named read-outs stand apart in the source and are kept apart here.
What was measured:
Drosophila OR13a = target: T1, Drosophila OR13a (Drosophila melanogaster, UniProt Q9VXL0); assay: Calcium ion fluorescence (GCaMP6) assay, OR13a stable HEK293 cell line; format: cell-based; details: for OR13a response (VUAA1-normalized) at 1 μM / OR13a response (VUAA1-normalized) at 10 μM / OR13a response (VUAA1-normalized) at 100 μM: OR13a cell line; for OR13a response (VUAA1-normalized) at 1 μM: VOC concentration 1 μM; for OR13a response (VUAA1-normalized) at 10 μM: VOC concentration 10 μM; for OR13a response (VUAA1-normalized) at 100 μM: VOC concentration 100 μM
T1 construct: expressed in transfected cells
T1 sequence (Q9VXL0 1-418): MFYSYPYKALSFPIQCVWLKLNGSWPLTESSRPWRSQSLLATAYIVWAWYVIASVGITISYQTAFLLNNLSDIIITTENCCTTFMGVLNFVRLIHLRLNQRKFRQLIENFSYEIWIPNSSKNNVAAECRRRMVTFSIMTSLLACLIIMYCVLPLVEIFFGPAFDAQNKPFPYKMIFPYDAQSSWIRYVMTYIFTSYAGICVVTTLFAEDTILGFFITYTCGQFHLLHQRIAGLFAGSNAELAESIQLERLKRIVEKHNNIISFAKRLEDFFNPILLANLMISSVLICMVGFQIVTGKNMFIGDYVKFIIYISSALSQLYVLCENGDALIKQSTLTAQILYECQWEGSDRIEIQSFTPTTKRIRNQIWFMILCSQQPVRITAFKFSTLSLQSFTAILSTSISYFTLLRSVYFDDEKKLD
T1 sequence (Q9VNB5 1-486 partner): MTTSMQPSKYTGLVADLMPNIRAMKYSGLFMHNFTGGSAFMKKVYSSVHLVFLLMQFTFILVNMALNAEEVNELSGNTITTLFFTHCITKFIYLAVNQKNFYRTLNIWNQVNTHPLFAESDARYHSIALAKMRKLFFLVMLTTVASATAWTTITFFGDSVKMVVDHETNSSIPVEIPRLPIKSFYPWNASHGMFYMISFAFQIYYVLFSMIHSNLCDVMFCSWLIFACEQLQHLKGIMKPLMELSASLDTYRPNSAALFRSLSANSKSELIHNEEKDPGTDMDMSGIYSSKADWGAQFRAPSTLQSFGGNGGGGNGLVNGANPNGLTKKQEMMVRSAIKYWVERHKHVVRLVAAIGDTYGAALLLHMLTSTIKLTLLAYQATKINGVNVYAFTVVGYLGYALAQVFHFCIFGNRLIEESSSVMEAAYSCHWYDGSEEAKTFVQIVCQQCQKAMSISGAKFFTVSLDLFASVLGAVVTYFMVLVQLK
Procedure: (§1) These VUAA1 normalized ∆F values were used to compare the different receptors and ligands.
(§2) The concentration-dependent effect of the reference ligands on their cognate cell lines was examined in more detail. Twelve different ligand concentrations were measured on each cell line in an overall 0.01 μM to 100 μM concentration range with 5 repetitions with three technical replicates each time.
(§3) Twelve thousand to 18,000 cells were plated into each well of a black wall, transparent bottom 384-well microplate (Greiner) 48 h or 72 h before the measurements and were simultaneously treated with 1 μg/mL doxycycline. […] The plate has 24 columns, thus we could record responses in up to eight different cell lines in each plate. On the day of the experiment, the growth medium was replaced with 20 µL assay buffer/well (140 mM NaCl, 5 mM KCl, 2 mM CaCl2, 1 mM MgCl2, 5 mM HEPES-Na, 20 mM glucose, pH 7.3, 340 mOsm). […] Baseline fluorescence (F0) was recorded for 5 s, after which 7 µL VOC buffer (140 mM NaCl, 5 mM KCl, 2 mM CaCl2, 1 mM MgCl2, 5 mM HEPES-Na, 31 mM glucose, 0.1% DMSO, pH 7.3, 340 mOsm) was injected into each well in one row and the fluorescence response was recorded for an additional 30 s, at a rate of one read/sec. VOC solutions (VOC buffer with 4× concentration of the final measured VOC concentration, 9 µL/well was injected) were measured on the same wells in a second round with the same protocol. Each individual concentration of a specific VOC sample was recorded in three wells for the same cell line on the same microplate. The raw data were exported in xls file format, F0 and FMAX values, and the fluorescence intensity changes (∆F) were calculated in Excel (Microsoft) (Supplementary file Data summary.xlsx) using the following equation: ΔF=FMAX-F0/F0 (see also Fig. 1C). On each plate, we recorded the response of each cell line to 50 µM VUAA1. The average of these ∆F values of each cell line were used to calculate the VUAA1-normalized values for the rest of the plate, by dividing VOC response ∆F values by the average VUAA1 response ∆F value of the corresponding OR cell line. Each VOC-OR combination was measured three times as technical replicates. […] The average of these replicates were used as one ∆F and VUAA1-normalized ∆F in the following analysis.
(§4) In the next rows we tested the reference VOCs (or other VOCs known to activate the corresponding cell lines), in order to test if all cell lines are responsive. The remaining rows were used to test VOCs with unknown effect.
(§5) The recorded FMAX, F0, ∆F, VUAA1-normalized ∆F values, as well as the OR name, the name of the tested sample, and the final concentration for each well were copied into supplementary file Data summary.xlsx, that was used to summarize all the plates recorded. Here, the averages of the measurements were calculated for each receptor-VOC-concentration combination.

Drosophila OR71a = target: T2, Drosophila OR71a (Drosophila melanogaster, UniProt Q9VUK5); assay: Calcium ion fluorescence (GCaMP6) assay, OR71a stable HEK293 cell line; format: cell-based; details: for OR71a response (VUAA1-normalized) at 1 μM / OR71a response (VUAA1-normalized) at 10 μM / OR71a response (VUAA1-normalized) at 100 μM / Average response: OR71a cell line; for OR71a response (VUAA1-normalized) at 1 μM: VOC concentration 1 μM; for OR71a response (VUAA1-normalized) at 10 μM: VOC concentration 10 μM; for OR71a response (VUAA1-normalized) at 100 μM: VOC concentration 100 μM; for Average response: VUAA1-normalized response, mean of biological replicates; for activation at 1 µM / activation at 10 µM / activation at 100 µM: HEK293, read-out: OR71a response (VUAA1-normalized response)
T2 construct: expressed in transfected cells
T2 sequence (Q9VUK5 1-378): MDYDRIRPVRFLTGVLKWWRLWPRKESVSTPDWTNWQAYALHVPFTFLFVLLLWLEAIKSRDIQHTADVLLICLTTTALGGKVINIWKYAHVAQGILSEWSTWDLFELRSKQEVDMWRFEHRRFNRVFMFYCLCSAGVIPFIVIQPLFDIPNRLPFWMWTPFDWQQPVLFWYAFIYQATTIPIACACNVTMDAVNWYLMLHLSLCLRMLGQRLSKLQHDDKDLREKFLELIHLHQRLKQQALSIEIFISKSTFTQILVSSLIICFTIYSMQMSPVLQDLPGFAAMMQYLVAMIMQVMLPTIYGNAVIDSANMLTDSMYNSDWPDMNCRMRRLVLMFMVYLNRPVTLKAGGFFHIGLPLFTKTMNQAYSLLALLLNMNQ
T2 sequence (Q9VNB5 1-486 partner): T1 sequence (Q9VNB5 1-486 partner)
Procedure: as §1, §2, §3, §4, §5

[1] = HEK293, read-out: OR13a Average response (VUAA1-normalized), 1 μM VOC, 50 μM VUAA1 = 1, responses not exceeding 0.05 considered 0
[2] = HEK293, read-out: OR13a Average response (VUAA1-normalized), 10 μM VOC, 50 μM VUAA1 = 1, responses not exceeding 0.05 considered 0
[3] = HEK293, read-out: OR13a Average response (VUAA1-normalized), 100 μM VOC, 50 μM VUAA1 = 1, responses not exceeding 0.05 considered 0
[4] = ligand concentration 1 (unit not given), threshold 0.05, below shown as 0
[5] = ligand concentration 10 (unit not given), threshold 0.05, below shown as 0
[6] = ligand concentration 100 (unit not given), threshold 0.05, below shown as 0
[7] = HEK293, read-out: OR13a response (VUAA1-normalized response), VOC concentration 1 μM
[8] = HEK293, read-out: OR13a response (VUAA1-normalized response), VOC concentration 10 μM
[9] = HEK293, read-out: OR13a response (VUAA1-normalized response), VOC concentration 100 μM
[10] = concentration 1, normalized fluorescence change, values below 0.05 threshold given as 0
[11] = concentration 10, normalized fluorescence change, values below 0.05 threshold given as 0
[12] = concentration 100, normalized fluorescence change, values below 0.05 threshold given as 0
[13] = ligand concentration 1 (unit not given), 0.05 threshold, values below shown as 0
[14] = ligand concentration 10 (unit not given), 0.05 threshold, values below shown as 0
[15] = ligand concentration 100 (unit not given), 0.05 threshold, values below shown as 0

Compound	activation at 1 µM (Drosophila OR13a; [1]) [%]	activation at 10 µM (Drosophila OR13a; [2]) [%]	activation at 100 µM (Drosophila OR13a; [3]) [%]	OR13a response (VUAA1-normalized) at 1 μM (Drosophila OR13a)	OR13a response (VUAA1-normalized) at 10 μM (Drosophila OR13a)	OR13a response (VUAA1-normalized) at 100 μM (Drosophila OR13a)	OR71a response (VUAA1-normalized) at 1 μM (Drosophila OR71a)	OR71a response (VUAA1-normalized) at 10 μM (Drosophila OR71a)	OR71a response (VUAA1-normalized) at 100 μM (Drosophila OR71a)	Average response (Drosophila OR71a; cc. 1 µM)	Average response (Drosophila OR71a; cc. 10 µM)	Average response (Drosophila OR71a; cc. 100 µM)	activation at 1 µM (Drosophila OR13a; [7]) [%]	activation at 10 µM (Drosophila OR13a; [8]) [%]	activation at 100 µM (Drosophila OR13a; [9]) [%]	DF norm AVERAGE OR13a (Drosophila OR13a; [10])	DF norm AVERAGE OR13a (Drosophila OR13a; [11])	DF norm AVERAGE OR13a (Drosophila OR13a; [12])	activation at 1 µM (Drosophila OR71a) [%]	activation at 10 µM (Drosophila OR71a) [%]	also measured
CCCCCOC(C)=O [pentyl acetate]	4	0.671	4.32	0.00	0.00	0.00	0.00	0.00	0.09	0.00	0.0163	0.09									DF norm AVERAGE OR13a (Drosophila OR13a; [4]): 0; DF norm AVERAGE OR13a (Drosophila OR13a; [5]): 0; DF norm AVERAGE OR13a (Drosophila OR13a; [6]): 0; DF norm AVERAGE OR71a (Drosophila OR71a; [4]): 0; DF norm AVERAGE OR71a (Drosophila OR71a; [5]): 0; DF norm AVERAGE OR71a (Drosophila OR71a; [6]): 0.08698
CCCCC(C)O (stereo not drawn) [2-hexanol]	0	0	5							0.00	0.00	0.0351	0	0	0	0	0	0	0	0	activation at 100 µM (Drosophila OR71a): 0%; DF norm AVERAGE OR71a (Drosophila OR71a; [10]): 0; DF norm AVERAGE OR71a (Drosophila OR71a; [11]): 0; DF norm AVERAGE OR71a (Drosophila OR71a; [12]): 0
CC/C=C\CCOC(C)=O [Z-3-hexenyl acetate]				0.00	0.00	0.09	0.00	0.00	0.00												
CCCCCCCCCCC [undecane]	0	0	0	0.00	0.00	0.00	0.00	0.00	0.00	0.00	0.00	0.00847									DF norm AVERAGE OR13a (Drosophila OR13a; [13]): 0; DF norm AVERAGE OR13a (Drosophila OR13a; [14]): 0; DF norm AVERAGE OR13a (Drosophila OR13a; [15]): 0; DF norm AVERAGE OR71a (Drosophila OR71a; [13]): 0; DF norm AVERAGE OR71a (Drosophila OR71a; [14]): 0; DF norm AVERAGE OR71a (Drosophila OR71a; [15]): 0
CC/C=C\CCO [Z3-hexenol]										0.00	0.0174	0.00									OR13a Average response (VUAA1-normalized) (Drosophila OR13a; 1 μM VOC, 50 μM VUAA1 = 1, responses not exceeding 0.05 considered 0): 0.04; OR13a Average response (VUAA1-normalized) (Drosophila OR13a; 10 μM VOC, 50 μM VUAA1 = 1, responses not exceeding 0.05 considered 0): 0.06; OR13a Average response (VUAA1-normalized) (Drosophila OR13a; 100 μM VOC, 50 μM VUAA1 = 1, responses not exceeding 0.05 considered 0): 0.00; DF norm AVERAGE OR13a (Drosophila OR13a; [13]): 0; DF norm AVERAGE OR13a (Drosophila OR13a; [14]): 0.05798; DF norm AVERAGE OR13a (Drosophila OR13a; [15]): 0; DF norm AVERAGE OR71a (Drosophila OR71a; [13]): 0; DF norm AVERAGE OR71a (Drosophila OR71a; [14]): 0; DF norm AVERAGE OR71a (Drosophila OR71a; [15]): 0
CCCCC(C)=O [2-hexanone]	6	0	0							0.08	0.00	0.00	6	0	0	0.05965	0	0	8	0	activation at 100 µM (Drosophila OR71a): 0%; DF norm AVERAGE OR71a (Drosophila OR71a; [10]): 0.08158; DF norm AVERAGE OR71a (Drosophila OR71a; [11]): 0; DF norm AVERAGE OR71a (Drosophila OR71a; [12]): 0
CCCC(O)CC (stereo not drawn) [3-hexanol]	5	4.43	1.88							0.00	0.06	0.0155	0	0	0	0	0	0	0	6	activation at 100 µM (Drosophila OR71a): 0%; DF norm AVERAGE OR71a (Drosophila OR71a; [10]): 0; DF norm AVERAGE OR71a (Drosophila OR71a; [11]): 0.06016; DF norm AVERAGE OR71a (Drosophila OR71a; [12]): 0

From article PMC10709440, “High-throughput ligand profile characterization in novel cell lines expressing seven heterologous insect olfactory receptors for the detection of volatile plant biomarkers” (Scientific Reports, 2023)
